# Tested on: Firefly luciferase
# Assay: Luciferase assay: emission spectrum of purified luciferase with luciferin substrates
# Conditions: substrate of purified firefly luciferase, pH 7.8, Spex Fluoromax-3
row,maximal emission [nm],Compound
1,555,"O=C(O)[C@H]1CSC(c2nc3ccc(O)cc3s2)=N1 [D-luciferin, reference compound]"
2,607,"CCCCNc1ccc2nc(C3=N[C@@H](C(=O)O)CS3)sc2c1 [n-butylamino, D-2-(6′-butylamino-2′-benzothiazolyl)-Δ^2-thiazoline-4-carboxylic acid]"
3,607,"CC(C)Nc1ccc2nc(C3=N[C@@H](C(=O)O)CS3)sc2c1 [isopropylamino, D-2-(6′-isopropylamino-2′-benzothiazolyl)-Δ^2-thiazoline-4-carboxylic acid]"
4,593,amino-luciferin [reference compound]
5,624,"CN(C)c1ccc2nc(C3=N[C@@H](C(=O)O)CS3)sc2c1 [dimethylamino-luciferin (1a), D-2-(6′-dimethylamino-2′-benzothiazolyl)-Δ^2-thiazoline-4-carboxylic acid]"

row,Compound,maximal emission [nm]
1,"CCNc1ccc2nc(C3=N[C@@H](C(=O)O)CS3)sc2c1 [ethylamino, D-2-(6′-ethylamino-2′-benzothiazolyl)-Δ^2-thiazoline-4-carboxylic acid]",607

# Tested on: Firefly luciferase
# Assay: not given
# Conditions: amino-luciferin as substrate, literature value; cited from earlier work
row,Compound,"maximal emission reported by White et al., JACS (1966) 88: 2015 [nm]"
1,amino-luciferin [reference compound],605

# Reference: patent publication US8216550B2, “Luciferins” (University of Massachusetts, priority 2007, dated 2012)
